# Source: ChEMBL document CHEMBL3826904, “Ionic liquid-promoted multicomponent synthesis of fused tetrazolo[1,5-a]pyrimidines as α-glucosidase inhibitors” (Bioorg Med Chem Lett, 2016)
# Active and inactive are the calls of the source. The rule behind the calls is not given here.
# Legend:
# Alpha-glucosidase MAL12 = Alpha-glucosidase MAL12 (Saccharomyces cerevisiae S288c, UniProt P53341); assay: Inhibition of yeast alpha-glucosidase MAL12 using 4-nitrophenyl-alpha-D-glucopyranoside as substrate preincubated for 30 mins followed by substrate addition measured after 10 mins by microplate reader analysis
# [1] = target: T1, Pancreatic alpha-amylase (Homo sapiens) (UniProt P04746); assay: Inhibition of pancreatic alpha-amylase (unknown origin) at 5 mM using starch as substrate preincubated for 30 mins followed by substrate addition measured after 10 mins by dinitrosalicylic acid method based microplate reader analysis
# T1 sequence (whole entry): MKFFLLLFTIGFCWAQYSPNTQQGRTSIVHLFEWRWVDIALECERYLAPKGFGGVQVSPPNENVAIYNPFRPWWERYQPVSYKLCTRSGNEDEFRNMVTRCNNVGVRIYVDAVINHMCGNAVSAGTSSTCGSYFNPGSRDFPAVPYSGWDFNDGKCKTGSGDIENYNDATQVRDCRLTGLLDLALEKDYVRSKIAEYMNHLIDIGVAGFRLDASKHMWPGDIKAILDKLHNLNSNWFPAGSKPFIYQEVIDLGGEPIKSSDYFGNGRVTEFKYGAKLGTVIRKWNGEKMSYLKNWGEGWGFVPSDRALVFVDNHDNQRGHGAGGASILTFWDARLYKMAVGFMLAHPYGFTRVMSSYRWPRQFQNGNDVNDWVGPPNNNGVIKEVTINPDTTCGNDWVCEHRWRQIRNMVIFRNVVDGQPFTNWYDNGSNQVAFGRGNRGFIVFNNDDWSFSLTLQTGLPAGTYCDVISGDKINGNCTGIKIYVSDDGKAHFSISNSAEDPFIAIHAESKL
# [2] = target: Alpha-glucosidase MAL12 (Saccharomyces cerevisiae S288c) (UniProt P53341); assay: Inhibition of yeast alpha-glucosidase MAL12 at 5 mM using 4-nitrophenyl-alpha-D-glucopyranoside as substrate preincubated for 30 mins followed by substrate addition measured after 10 mins by microplate reader analysis
# Sequence of Alpha-glucosidase MAL12 (Saccharomyces cerevisiae S288c) (P53341 whole entry): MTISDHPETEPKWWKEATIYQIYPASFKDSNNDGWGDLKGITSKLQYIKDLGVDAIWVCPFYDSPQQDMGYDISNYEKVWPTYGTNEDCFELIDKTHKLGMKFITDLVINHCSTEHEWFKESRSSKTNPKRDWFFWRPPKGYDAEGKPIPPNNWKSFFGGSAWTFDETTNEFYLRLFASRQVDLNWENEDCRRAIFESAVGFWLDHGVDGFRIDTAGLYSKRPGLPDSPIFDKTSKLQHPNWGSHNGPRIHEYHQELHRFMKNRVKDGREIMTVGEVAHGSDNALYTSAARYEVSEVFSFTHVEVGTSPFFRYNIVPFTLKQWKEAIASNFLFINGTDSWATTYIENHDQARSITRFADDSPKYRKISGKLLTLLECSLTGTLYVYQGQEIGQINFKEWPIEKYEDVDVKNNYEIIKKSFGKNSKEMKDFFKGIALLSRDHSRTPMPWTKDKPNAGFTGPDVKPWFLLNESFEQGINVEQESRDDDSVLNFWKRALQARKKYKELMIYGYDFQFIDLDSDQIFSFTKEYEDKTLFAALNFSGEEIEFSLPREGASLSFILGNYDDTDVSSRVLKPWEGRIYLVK
# Sequence of Alpha-glucosidase MAL12 (P53341 whole entry): as above
Structure (SMILES),IC50 (Alpha-glucosidase MAL12) [µM],inhibition [1],inhibition [2]
O=[N+]([O-])c1ccc(-c2ccnc3nnnn23)cc1,308,inactive,Active
Cc1ccc(-c2ccnc3nnnn23)cc1,49.8,inactive,Active
c1ccc(-c2ccnc3nnnn23)nc1,591,inactive,Active
Clc1ccc(-c2ccnc3nnnn23)cc1,421,inactive,Active
COc1ccc(-c2ccnc3nnnn23)cc1,85.7,inactive,Active
Fc1ccc(-c2ccnc3nnnn23)cc1,178,inactive,Active
Brc1ccc(-c2ccnc3nnnn23)cc1,–,inactive,Active
c1csc(-c2ccnc3nnnn23)c1,1010,inactive,Active

# Second part, the molecule after the results:
IC50 (Alpha-glucosidase MAL12) [µM],inhibition [1],inhibition [2],Structure (SMILES)
1740,inactive,Active,Oc1ccccc1-c1ccnc2nnnn12
446,inactive,Active,O=c1oc2ccccc2cc1-c1ccnc2nnnn12
422,inactive,Active,c1ccc(-c2ccnc3nnnn23)cc1
–,inactive,Active,c1ccc2oc(-c3ccnc4nnnn34)cc2c1
